Reference: ChEMBL document CHEMBL5634115, “Exploring novel anticancer pyrazole benzenesulfonamides featuring tail approach strategy as carbonic anhydrase inhibitors” (Eur J Med Chem, 2023)

What was measured:
Carbonic anhydrase 9 = Carbonic anhydrase 9 (Homo sapiens, UniProt Q16790)
Description: Binding affinity to human CA9 assessed as inhibition constant

Carbonic anhydrase 12 [1] = molecular target: T1, Carbonic anhydrase 12 (Homo sapiens, UniProt O43570)
Description: Binding affinity to human CA12 assessed as inhibition constant

Carbonic anhydrase 12 [2] = molecular target: T1, Carbonic anhydrase 12; remark: listed apart in the source
Description: Inhibition of human carbonic anhydrase 12 preincubated for 15 mins followed by substrate addition and measured after 30 mins by spectrophotometric method

T1 sequence (O43570 whole entry): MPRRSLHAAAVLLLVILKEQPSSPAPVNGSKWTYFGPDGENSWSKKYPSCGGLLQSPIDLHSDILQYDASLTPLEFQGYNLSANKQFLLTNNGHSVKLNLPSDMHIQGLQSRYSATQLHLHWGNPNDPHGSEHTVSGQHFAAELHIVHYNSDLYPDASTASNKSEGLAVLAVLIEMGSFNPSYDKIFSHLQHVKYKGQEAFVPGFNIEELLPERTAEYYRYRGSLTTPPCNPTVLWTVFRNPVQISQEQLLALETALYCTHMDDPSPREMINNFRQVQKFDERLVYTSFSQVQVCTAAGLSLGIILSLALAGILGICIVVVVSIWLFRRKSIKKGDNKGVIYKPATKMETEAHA

SMILES | Ki (Carbonic anhydrase 9) [nM] | Ki (Carbonic anhydrase 12 [1]) [nM] | IC50 (Carbonic anhydrase 12 [2]) [nM]
NS(=O)(=O)c1ccc(C(=O)N/N=C/c2ccccc2O)cc1 | 18.9 | 32.7 | 
CCOC(=O)c1cc(-c2ccc([N+](=O)[O-])cc2)n(-c2ccc(S(N)(=O)=O)cc2)n1 | 20.5 |  | 
CCOC(=O)c1cc(-c2ccccc2)n(-c2ccc(S(N)(=O)=O)cc2)n1 | 225 |  | 
CCn1c(-c2cc(C(=O)O)[nH]n2)cc2ccccc21 | 7.79 | 7.78 | 
Cc1ccc(-c2nn(-c3ccc(S(N)(=O)=O)cc3)cc2/C=N/Nc2ccc(S(N)(=O)=O)cc2)cc1 |  |  | 144
CCOC(=O)c1cc(-c2ccc(C)cc2)n(-c2ccc(S(N)(=O)=O)cc2)n1 | 176 |  | 
